These results are taken from patent US6716613B1, “Metalloprotease having aggrecanase activity” (Yamanouchi Pharmaceutical Co., Ltd., priority 1999, dated 2004).

Series [1] relates to MDTS6 mRNA. Description: Induction of MDTS6 mRNA expression in rabbit knee joint cartilage primary culture cells (RT-PCR). It is filed as cell-based. The conditions noted are these: 10 ng/ml of IL-1β or 10 μM of all-trans retinoic acid; 2 and 6 hours. Here is the method:
After 3 days of culturing of the rabbit knee joint cartilage primary culture cells of 6 well plate described in Example 11-1 by changing the medium to ascorbic acid medium, 10 ng/ml of IL-1β or 10 μM of all-trans retinoic acid was added thereto, and total RNA samples 2 and 6 hours thereafter were prepared using ISOGEN (mfd. by Nippon Gene) in accordance with the attached instructions. Each of the samples was treated with DNase I (mfd. by Nippon Gene), subjected to phenol/chloroform treatment and then recovered by ethanol precipitation, and the thus purified total RNA was dissolved in DEPC-treated sterile water. Using random hexamers as primers, 1 μg of this total RNA was subjected to reverse transcription reaction and RNase H treatment using Thermoscript™ RT-PCR System (mfd. by GIBCO-BRL, catalog number 11146-016) in accordance with the attached instructions, and the product was diluted 10 times with sterile water and used as a cDNA sample. Using 5 μl of each of the thus obtained cDNA samples as the template and the oligoDNA sequences represented by SEQ ID NO:18 and SEQ ID NO:19 as primers, PCR was carried out under a condition of 94° C. for 2 minutes, 45 repetitions of a cycle of 94° C. for 30 seconds, 65° C. for 30 seconds and 72° C. for 30 seconds, and subsequent 72° C. for 10 minutes. […]

Series [2] has as its system rabbit knee joint cartilage primary culture cells. Description: Proteoglycan degradation/release in rabbit knee joint cartilage primary culture cells (35S label). The format is cell-based. Conditions: stimulation with 0.01 to 10 ng/ml IL-1β or 0.1 to 10 μM all-trans retinoic acid; 0, 24, 48 hours of culturing. Here is the method: After killing a rabbit (Japanese white species, male, 1.0 to 1.5 kg) under excess anesthesia, a knee joint was excised and the cartilage layer on the joint surface was removed and finely cut using a surgical knife. The cut pieces were treated with trypsin-EDTA (0.25%-1 mM; mfd. by GIBCO-BRL) at 37° C. for 1 hour and then centrifuged at 1,500 rpm for 5 minutes, and the resulting precipitate was washed with DMEM. This was treated with collagenase A (0.15%; Boehringer-Mannheim)/DMEM at 37° C. for 3 to 4 hours, and then a nylon mesh filter (100 μm, mfd. by Falcon)-passed fraction was centrifuged at 1,500 rpm for 5 minutes to effect precipitation of cartilage cells. The cells were thoroughly washed with DMEM/10% FBS medium, suspended in DMEM/10% FBS medium to a density of 2×10^5 cells/ml and then inoculated in 200 μl/well portions into an I type collagen-coated 96 well plate (mfd. by Asahi Technoglass). Three days thereafter, the medium was changed to 200 μof DMEM/10% FBS medium containing 50 μg/ml of ascorbic acid (ascorbic acid medium hereinafter), and the culturing was continued for 3 days. When an I type collagen-coated 6 well plate (Asahi Technoglass) was used, the cell suspension was inoculated in 6 ml/well portions and cultured by carrying out the same medium exchange. These cells were used in the following test.
The rabbit knee joint cartilage primary culture cells of 96 well plate described in Example 11-1 were cultured for 2 days using 200 μl of the ascorbic acid medium supplemented with 10 μCi/ml in final concentration of Na2^35SO4 and labeled therewith, washed 3 times with 200 μl of the ascorbic acid medium and then cultured for 1 day using 200 μl of the ascorbic acid medium. After stimulation with IL-1β or all-trans retinoic acid and subsequent 0, 24, and 48 hours of culturing, the culture supernatants were recovered in 20 μl portions, and the radioactivity was measured using Top Count (mfd. by Packard).
Each of the compounds A, B, C and D selected by the screening system of Example 10-2 was added to the proteoglycan degradation system of rabbit knee joint cartilage primary culture cells just before the stimulation with 10 μM of all-trans retinoic acid, and their proteoglycan degradation inhibitory activities were examined.

Series [3] concerns MDTS6 mRNA. Description: Expression induction of MDTS6 mRNA in ATDC5 cells (RT-PCR). The format is cell-based, mouse. The conditions noted are these: insulin-differentiated, IL-1β 5 ng/ml for 0, 1, 2, 4 or 8 hours. Here is the method: It is known that a mouse cell strain ATDC5 is differentiated into a chondrocyte-like cell by insulin treatment (Atsumi T. et al., Cell Differ. Dev., 30, 109-116, 1990). The ATDC5 cells were inoculated in 4×10^5/well portions into an I type collagen-coated 6 well plate (mfd. by Asahi Technoglass) and cultured for 2 days using DMEM/HamF12 (1:1)/5% FCS medium, the medium was changed to DMEM/HamF12 (1:1)/5% FCS medium containing insulin (final concentration 30 ng/ml) and 50 μg/ml of L-ascorbic acid and the culturing was continued for 5 days, and then the resulting cells were treated for 0, 1, 2, 4 or 8 hours by adding IL-1β (final concentration 5 ng/ml). Total RNA was prepared from each of the treated groups using ISOGEN (mfd. by Nippon Gene), and RT-PCR was carried out using 1 μg portion thereof as the template and using BcaBEST™ RNA PCR Kit (mfd. by Takara Shuzo). The reverse transcription reaction was carried out using Oligo dT-Adaptor Primer as the primer in accordance with the attached instructions, and PCR was carried out using oligoDNA sequences represented by SEQ ID NO:15 and SEQ ID NO:16 as primers, which had been synthesized based on the 3′ non-translation region of MDTS6, by the reaction of 94° C. for 2 minutes, 40 repetitions of a cycle of 94° C. for 30 seconds, 60° C. for 30 seconds and 72° C. for 30 seconds, and subsequent 72° C. for 7 minutes. […]

The subject of series [4] is recombinant aggrecan G1G2. Description: Recombinant aggrecan G1G2 degradation by expressed MDTS6 proteins (western blotting). The conditions noted are these: method of Example 7-3, anti-aggrecanase neoepitope antibody. It is filed as biochemical, human. Here is the method:
In Example 6, the medium 12 to 16 hours after introduction of the expression plasmid was replaced by a serum-free medium, and the culturing was continued for 32 to 36 hours to recover the culture supernatant. This culture supernatant was mixed with the recombinant aggrecan prepared in the foregoing, and the mixture was allowed to undergo the reaction at 37° C. overnight, subjected to SDS-PAGE, transferred on a PVDF membrane and blocked by the method described in Example 6 and then allowed to react with an anti-Hisx6 polyclonal antibody (sc-803; mfd. by Santa Cruz Biotechnology) and a horseradish peroxidase-labeled goat anti-rabbit IgG polyclonal antibody (mfd. by BML) in that order. After the reaction, the recombinant aggrecan was detected using an ECL western blotting system (mfd. by Amersham Pharmacia). As a result, degraded fragment of the recombinant aggrecan, which was not found in the control in which only the […] was introduced, was detected (FIG. 2).
Aggrecanase is a metalloprotease which selectively cleaves aggrecan at the site between Glu^373 -Ala^374. An antibody capable of recognizing a C-side neoepitope generated by this cleavage was prepared in accordance with a usual method by repeating immunization of mouse with a conjugate of the synthetic peptide represented by SEQ ID NO:32 and KLH, 5 times. A PVDF membrane after transfer and blocking carried out in the same manner as in Example 7-2 was allowed to react with this antibody, allowed to react with a peroxidase-labeled goat anti-mouse IgG polyclonal antibody (mfd. by Tago) and then detected using an ECL western blotting detection system (mfd. by Amersham Pharmacia). As a result, the degraded product of recombinant aggrecan generated by MDTS6 reacted with the anti-aggrecanase neoepitope antibody, and molecular weight of the detected band is consistent with the molecular weight of the degraded product detected in Example 7-2 (FIG. 3). The same result was obtained by the BC-3 antibody which recognizes aggrecanase neoepitope (Hughes C. E. et al., Biochemical J., 305, 799-804, 1995). […]
In general terms: A western blot detects proteins with antibodies after separation by electrophoresis.

`CC1=C(/C=C/C(C)=C/C=C/C(C)=C/C(=O)O)C(C)(C)CCC1` [all-trans retinoic acid, reference compound]: in the series on MDTS6 mRNA [1], the “expression of the MDTS6 mRNA” value is reported as “induced”. The “release of proteoglycan (increase in radioactivity of culture supernatant)” value in series [2] is “concentration-dependent and strong radioactivity, namely release of proteoglycan, was observed”.
In the case of “IL-1β: cytokine used to stimulate proteoglycan release and MDTS6 mRNA expression”, the “expression of the MDTS6 mRNA” value in the series on MDTS6 mRNA [3] was “transiently induced”; with MDTS6 mRNA [1] it was “induced”. For the same molecule, the “release of proteoglycan (increase in radioactivity of culture supernatant)” value in series [2] was “increase in the radioactivity, namely release of proteoglycan, was observed”.

B1: MDTS6Dis: protein of amino acids 1st to 518th position of SEQ ID NO:1 with the polypeptide of SEQ ID NO:33 added to the C-terminus (protein)
chain: FVSIPRYVETLVVADESMVKFHGADLEHYLLTLLATAARLYRHPSILNPINIVVVKVLLLRDRDSGPKVTGNAALTLRNFCAWQKKLNKVSDKHPEYWDTAILFTRQDLCGATTCDTLGMADVGTMCDPKRSCSVIEDDGLPSAFTTAHELGHVFNMPHDNVKVCEEVFGKLRANHMMSPTLIQIDRANPWSACSAAIITDFLDSGHGDCLLDQPSKPISLPEDLPGASYTLSQQCELAFGVGSKPCPYMQYCTKLWCTGKAKGQMVCQTRHFPWADGTSCGEGKLCLKGACVERHNLNKHRVDGSGSAAADYKDDDDK
Turning to B1, the “aggrecanase activity in culture supernatant” value (from here on “aggrecanase activity”) in series [4] is “not detected”.

B2: MDTS6Cys: protein of amino acids 1st to 687th position of SEQ ID NO:1 with the polypeptide of SEQ ID NO:33 added to the C-terminus (protein)
chain: FVSIPRYVETLVVADESMVKFHGADLEHYLLTLLATAARLYRHPSILNPINIVVVKVLLLRDRDSGPKVTGNAALTLRNFCAWQKKLNKVSDKHPEYWDTAILFTRQDLCGATTCDTLGMADVGTMCDPKRSCSVIEDDGLPSAFTTAHELGHVFNMPHDNVKVCEEVFGKLRANHMMSPTLIQIDRANPWSACSAAIITDFLDSGHGDCLLDQPSKPISLPEDLPGASYTLSQQCELAFGVGSKPCPYMQYCTKLWCTGKAKGQMVCQTRHFPWADGTSCGEGKLCLKGACVERHNLNKHRVDGSWAKWDPYGPCSRTCGGGVQLARRQCTNPTPANGGKYCEGVRVKYRSCNLEPCPSSASGKSFREEQCEAFNGYNHSTNRLTLAVAWVPKYSGVSPRDKCKLICRANGTGYFYVLAPKVVDGTLCSPDSTSVCVQGKCIKAGCDGNLGSKKRFDKCGVCGGDNKSCKKVTGGSAAADYKDDDDK
On to B2, for which the “aggrecanase activity” value in series [4] was “detected”.

B3: MDTS6Pro: protein of amino acids 1st to 447th position of SEQ ID NO:1 with the polypeptide of SEQ ID NO:33 added to the C-terminus (protein)
chain: FVSIPRYVETLVVADESMVKFHGADLEHYLLTLLATAARLYRHPSILNPINIVVVKVLLLRDRDSGPKVTGNAALTLRNFCAWQKKLNKVSDKHPEYWDTAILFTRQDLCGATTCDTLGMADVGTMCDPKRSCSVIEDDGLPSAFTTAHELGHVFNMPHDNVKVCEEVFGKLRANHMMSPTLIQIDRANPWSACSAAIITDFLDSGHGDCLLDQPSKPISLPEDLPGASYTLSQQGSAAADYKDDDDK
In the case of B3, the “aggrecanase activity” value in series [4] is on record as “not detected”.
